Assay [1] deals with CFI female mice. Nature of the assay: Antilipogenic evaluation of test compounds - mouse study (Example 6, procedure of Example 4). It is filed as in vivo. The procedure:
CFI female mice from Carworth Farms are received when they are six-weeks old. They are housed ten to a cage in air-conditioned rooms (22° C. to 25° C.) with automatically-controlled lights, 14 hours on and ten hours off. The basal diet used in these studies is Purina Laboratory Chow (see description below) which is supplied ad libitum.
Thirteen days after arrival, the mice are weighed in groups of ten and assigned at random to the different treatments. Each of the treatments is tested in three replicates, i.e., in three cages of ten mice each. There are ten cages of ten control mice each. Drugs are mixed in the diet at the dosage level indicated. Feed and water are offered ad libitum for a 12-day test period. Feed spilled is collected during the test period. At the end of the test period, the collected feed is weighed, and the mean feed consumption per cage of ten mice is determined for each treatment. The mice are weighed as a group of ten, and the weight gain determined. The mice are sacrificed by cervical dislocation. The right uterine fat pad of each mouse is removed. The fat pads for each cage of ten mice are weighed as a unit. Reduction in fat pad weights of animals is generally indicative of a reduction of total body fat of the treated animals.
Following the procedure of Example 4, the analogues of the compounds of the invention in the subject Application are evaluated as antilipogenic agents.

In assay [2] the test system is CFI female mice. Nature of the assay: Antilipogenic evaluation of test compounds - mouse study (fat pad and body weight, 12-day feeding). The format is in vivo. The following applies: 12 days. The procedure: CFI female mice from Carworth Farms are received when they are six-weeks old. They are housed ten to a cage in air-conditioned rooms (22° C. to 25° C.) with automatically-controlled lights, 14 hours on and ten hours off. The basal diet used in these studies is Purina Laboratory Chow (see description below) which is supplied ad libitum. The following is a description of the diet to which the growth-promoting compounds were added. Meat and bone meal, dried skimmed milk, wheat germ meal, fish meal, animal liver meal, dried beet pulp, ground extruded corn, ground oat groats, soybean meal, dehydrated alfalfa metal, cane molasses, animal fat preserved with BHA, vitamin B12 supplement, calcium pantothenate, choline chloride, folic acid, riboflavin supplement, brewer's dried yeast, thiamin, niacin, vitamin A supplement, D-activated plant sterol, vitamin E supplement, calcium carbonate, dicalcium phosphate, iodized salt, ferric ammonium citrate, iron oxide, manganous oxide, cobalt carbonate, copper oxide, zinc oxide. Water is also allowed ad libitum. Thirteen days after arrival, the mice are weighed in groups of ten and assigned at random to the different treatments. Each of the treatments is tested in three replicates, i.e., in three cages of ten mice each. There are ten cages of ten control mice each. Drugs are mixed in the diet at the dosage level indicated. Feed and water are offered ad libitum for a 12-day test period. Feed spilled is collected during the test period. At the end of the test period, the collected feed is weighed, and the mean feed consumption per cage of ten mice is determined for each treatment. The mice are weighed as a group of ten, and the weight gain determined. The mice are sacrificed by cervical dislocation. The right uterine fat pad of each mouse is removed. The fat pads for each cage of ten mice are weighed as a unit. Reduction in fat pad weights of animals is generally indicative of a reduction of total body fat of the treated animals.

Molecules are shown by their SMILES.

With `CC(C)NCC(O)c1cc(F)cc(C#N)c1` (stereo not drawn) [3-fluoro-5-[1-hydroxy-2-(isopropylamino)ethyl]-benzonitrile], the “effectiveness as an antilipogenic agent” value in assay [1] (100 ppm or 200 ppm in the diet, versus related analogues) is listed as “generally more effective as an antilipogenic agent than its related analogues”.
As for `CC(C)(C)NCC(O)c1cc(F)cc(C#N)c1` (stereo not drawn) [drawing 13], the “% Change in Body Weight vs controls” value is recorded as “+96.61%” in assay [2] (25 ppm in diet), “+80.51%” in assay [2] (50 ppm in diet), “+65.25%” in assay [2] (100 ppm in diet) and “+55.93%” in assay [2] (200 ppm in diet). For the same compound, the “% Reduction in Fat Pad Weight vs Controls” value (shortened to “% Reduction”) is on record as -8.97% in assay [2] (25 ppm in diet), -14.04% in assay [2] (50 ppm in diet), -29.65% in assay [2] (100 ppm in diet) and -38.13% in assay [2] (200 ppm in diet).
Take `CC(C)NCC(O)c1cc(F)cc(C#N)c1` (stereo not drawn) [drawing 14]: the “% Change in Body Weight vs controls” value is “+0.73%” in assay [2] (3 ppm in diet); “+40.88%” in assay [2] (6 ppm in diet); “+26.28%” in assay [2] (12.5 ppm in diet); “+29.20%” in assay [2] (25 ppm in diet); “+78.10%” in assay [2] (50 ppm in diet); “+56.93%” in assay [2] (100 ppm in diet). Also, the “% Change in Body Weight vs controls” value in assay [2] (200 ppm in diet) is given as “+88.32%”. The “% Reduction” value in assay [2] (6 ppm in diet) is “+5.91%”; in assay [2] (12.5 ppm in diet) it was -11.76%; in assay [2] (25 ppm in diet), “+9.76%”; in assay [2] (50 ppm in diet), “+9.90%”; in assay [2] (100 ppm in diet), -17.71%; in assay [2] (200 ppm in diet) it was -33.29%. The “Mouse Test Fat Pad Weight % ± Control” value was -17.7% in assay [1] (100 ppm) and -33.3% in assay [1] (200 ppm).
Consider `CCCC(C)NCC(O)c1cc(F)cc(C#N)c1` (stereo not drawn) [drawing 15], for which the “% Change in Body Weight vs controls” value is recorded as “+15.9%” in assay [2] (50 ppm in diet), “+1.2%” in assay [2] (100 ppm in diet) and “+22.4%” in assay [2] (200 ppm in diet). For the same compound, the results for the “% Reduction” value in assay [2] (50 ppm in diet), in assay [2] (100 ppm in diet) and in assay [2] (200 ppm in diet) were -5.6%, -15.5% and -22.8%, respectively.
Regarding `CCNCC(O)c1cc(F)cc(C#N)c1` (stereo not drawn) [drawing 16], the “% Change in Body Weight vs controls” value in assay [2] (50 ppm in diet) is reported as “+18.8%”; in assay [2] (100 ppm in diet) it was -4.1%; in assay [2] (200 ppm in diet), “+25.3%”. In addition, the “% Reduction” value is reported as “+4.3%” in assay [2] (50 ppm in diet), -33.3% in assay [2] (100 ppm in diet) and -37.9% in assay [2] (200 ppm in diet).
As for `CC(C)N(CC(O)c1cc(F)cc(C#N)c1)C(C)C` (stereo not drawn) [drawing 17], in assay [2] (200 ppm in diet), the “% Change in Body Weight vs controls” value was “+19.05%” and the “% Reduction” value is listed as -19.36%. In assay [2] (second dose, not given), the “% Change in Body Weight vs controls” value is given as -2.38% and the “% Reduction” value is recorded as -15.39%.
On to `CC(C)(C)NCC(O)c1cc(F)cc(C#N)c1` (stereo not drawn) [drawing 24], for which the figures for the “Mouse Test Fat Pad Weight % ± Control” value in assay [1] (100 ppm) and in assay [1] (200 ppm) were -38.4% and -42.9%, respectively.

These data come from patent US4614746A, “5-fluorobenzonitrile derivatives for increasing the lean meat to fat ratio and/or enhancing the growth rate of warm-blooded animals” (American Cyanamid Company, priority 1985, dated 1986).
